Measurements reported in article PMC7766225, “Structure-Based Discovery and Bioactivity Evaluation of Novel Aurora-A Kinase Inhibitors as Anticancer Agents via Docking-Based Comparative Intermolecular Contacts Analysis (dbCICA)” (Molecules, 2020).
Where “and” joins values, the source holds several entries; their conditions need not be identical. Equal values may be shown once.

Assays:
PANC1 cells = assay: MTT cytotoxicity/anti-proliferation assay, PANC1; assay type: cell-based, human; details: for IC50: Panc1, 72 h; for inhibition at 25 µM / inhibition at 50 µM: PANC-1, 72 h; for inhibition at 25 µM: Panc1, 25 µM; for inhibition at 50 µM: Panc1, 50 µM
Experimental: (§1) The human cell-lines triple negative breast adenocarcinoma MDA-MB-231, Pancreas adenocarcinoma PANC1, ductal breast carcinoma T-47D and fibroblasts were preserved and expanded in DMEM medium, while the prostate adenocarcinoma PC-3 cells were cultured in RPMI-1640 growth medium. All growth media were supplemented with 10% heat-inactivated fetal bovine serum (FBS). Cells were maintained under standard culture conditions at 37 °C, 5% CO2 in a humidified incubator. At 80% confluency, cells were washed with 5 mL phosphate buffer saline (1X PBS), then incubated for 4 min with 2–3 mL Trypsin-EDTA 0.25% in order to obtain suspended cells and collect them in a known volume of fresh media for cell count. Cells were counted using conventional hemocytometer and trypan blue dye method.
(§2) The five potent hits that have shown anti-Aurora-A Kinase inhibition percentages above 51% at 10 μM upon conducting the kinase enzyme Inhibition assay (Table 5) were further validated using MTT cytotoxicity Assay. This assay includes 3-(4,5-Dimethylthiazol-2-yl)-2,5-diphenyl tetrazolium bromide (MTT) dye, which is a yellowish tetrazole reduced by viable cells into formazan purple color, which detects the normal mitochondrial role in viable cells. In 96-well coated flat bottom microplates, 100 μL cell suspension of PANC1 or T-47D cells were seeded at a density of 7000 cell/well, and 6000 cell/well for MDA-MB-231, PC-3, or fibroblasts, and incubated under the same conditions at 37 °C. After 24 h, each well was treated with the intended drug concentration diluted in 200 μL fresh media after removal of the old 100-μL media. After 72 h incubation, drug-containing media was aspirated and on each well 100 μL phenol-red free media and 15-μL MTT solution (5 mg/mL (wt/vol) PBS). After 3 h of dark incubation at 37 °C, MTT and media were carefully withdrawn from each well, and 200 μL/well DMSO were added. Colorimetric absorbance (OD) was measured at 570 nm wavelength using 96-well plate reader (Tecan-Sunrise, Männedorf, Switzerland).
(§3) The five compounds were prepared in a stock concentrate of 10 mM using cell culture grade DMSO to be utilized in MTT assay. The cytotoxicity of each compound was initially screened on cancer cell-lines at two concentrations: 50 μM and 25 μM in duplicates. […] The safety index for the compounds with specified IC50 values was evaluated via determining their IC50 values against normal Fibroblast cells. It is noteworthy to mention that DMSO concentration was constant on all the wells (i.e., (0.5% v/v or 1 μL/200 μL) per well), for the treated and the control ones. IC50 values were calculated using nonlinear regression of the dose–response curves using GraphPad Prism software 7.03.

PC-3 cells = assay: MTT cytotoxicity/anti-proliferation assay, PC-3; assay type: cell-based; details: Homo sapiens; for IC50: PC-3, 72 h; for inhibition at 25 µM: PC-3, 25 µM; for inhibition at 25 µM / inhibition at 50 µM: 72 h; for inhibition at 50 µM: PC-3, 50 µM
Experimental: as §1, §2, §3

T-47D cells = assay: MTT cytotoxicity/anti-proliferation assay, T-47D; assay type: cell-based; details: Homo sapiens, T47D, 72 h
Experimental: as §1, §2, §3

MDA-MB-231 cells = assay: MTT cytotoxicity/anti-proliferation assay, MDA-MB-231; assay type: cell-based, human; details: for IC50: MDA-MB-231, 72 h; for inhibition at 25 µM: MDA-MB-231, 25 µM; for inhibition at 25 µM / inhibition at 50 µM: 72 h; for inhibition at 50 µM: MDA-MB-231, 50 µM
Experimental: as §1, §2, §3

[1] = test system: xenograft models of various cancer types; parameters: method as in PMID 19369091, PMID 14981513, PMID 18160664; details: cited from earlier work
Fibroblasts = assay: MTT cytotoxicity assay on normal fibroblasts (safety index); assay type: cell-based; details: Homo sapiens, Fibroblast, 72 h
Experimental: as §1, §2, §3

[2] = test system: PANC1, PC-3, T-47D and MDA-MB-231 cancer cells; assay: MTT anti-proliferative assay, four cancer cell lines together; assay type: cell-based; details: Homo sapiens; 72 h of incubation; read-out: IC50 values against PANC1, PC-3, T-47D and MDA-MB-231 (range over cell lines)
Experimental: The human cell-lines triple negative breast adenocarcinoma MDA-MB-231, Pancreas adenocarcinoma PANC1, ductal breast carcinoma T-47D and fibroblasts were preserved and expanded in DMEM medium, while the prostate adenocarcinoma PC-3 cells were cultured in RPMI-1640 growth medium. All growth media were supplemented with 10% heat-inactivated fetal bovine serum (FBS). Cells were maintained under standard culture conditions at 37 °C, 5% CO2 in a humidified incubator. […] Cells were counted using conventional hemocytometer and trypan blue dye method. […] In 96-well coated flat bottom microplates, 100 μL cell suspension of PANC1 or T-47D cells were seeded at a density of 7000 cell/well, and 6000 cell/well for MDA-MB-231, PC-3, or fibroblasts, and incubated under the same conditions at 37 °C. After 24 h, each well was treated with the intended drug concentration diluted in 200 μL fresh media after removal of the old 100-μL media. […] Colorimetric absorbance (OD) was measured at 570 nm wavelength using 96-well plate reader (Tecan-Sunrise, Männedorf, Switzerland). […] The safety index for the compounds with specified IC50 values was evaluated via determining their IC50 values against normal Fibroblast cells. […] IC50 values were calculated using nonlinear regression of the dose–response curves using GraphPad Prism software 7.03.

Aurora-A kinase = biological target: T1, Aurora-A kinase (Homo sapiens, UniProt O14965); assay: FRET-based Z'-LYTE kinase enzyme inhibition assay; assay type: biochemical
T1 construct: purchased Invitrogen (Carlsbad, CA, USA)
T1 sequence (O14965 1-403): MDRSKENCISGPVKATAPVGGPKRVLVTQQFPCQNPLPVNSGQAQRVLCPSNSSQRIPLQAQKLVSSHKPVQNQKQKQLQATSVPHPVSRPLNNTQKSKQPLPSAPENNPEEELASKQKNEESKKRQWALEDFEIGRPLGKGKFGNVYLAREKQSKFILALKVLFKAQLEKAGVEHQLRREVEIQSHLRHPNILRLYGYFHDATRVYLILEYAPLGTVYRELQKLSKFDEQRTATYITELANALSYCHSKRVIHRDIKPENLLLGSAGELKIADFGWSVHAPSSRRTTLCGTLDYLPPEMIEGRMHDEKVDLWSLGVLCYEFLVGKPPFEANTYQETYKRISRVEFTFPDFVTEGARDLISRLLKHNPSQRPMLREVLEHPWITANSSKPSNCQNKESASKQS
Experimental: This bioassay was conducted using Z′-LYTE® kinase assay (Invitrogen, Carlsbad, CA, USA) [68, 69]. This biochemical assay depends on fluorescence emission as detection method utilizing a synthetic fluorescence resonance energy transfer (FRET) peptide with two fluorophores: coumarin that work as donor and fluorescein as acceptor [69]. Each hit or compound was dissolved in DMSO to form 10 mM stock solution. Hits were screened at 10 μM concentration. The bioassay was performed in black 384-well plate. For each assay, 100 nL of tested compound stock solution (10 mM) was mixed with 2.4 μL kinase buffer, 5 μL (peptide substrate/Aurora-A Kinase) mixture, and 2.5 μL ATP solution.
The tests were conducted in duplicates.

Compound	IC50 (PANC1 cells; Homo sapiens, PANC-1, 72 h)	inhibition at 25 µM (PANC1 cells; Homo sapiens)	inhibition at 50 µM (PANC1 cells; Homo sapiens)	IC50 (PC-3 cells)	inhibition at 25 µM (PC-3 cells)	inhibition at 50 µM (PC-3 cells)	inhibition at 25 µM (T-47D cells)	inhibition at 50 µM (T-47D cells)	IC50 (T-47D cells)	IC50 (MDA-MB-231 cells; Homo sapiens)	inhibition at 25 µM (MDA-MB-231 cells; Homo sapiens)	inhibition at 50 µM (MDA-MB-231 cells; Homo sapiens)	inhibition at 25 µM (Fibroblasts)	inhibition at 50 µM (Fibroblasts)	IC50 (Fibroblasts)	further results
Cc1cc(Nc2cc(N3CCN(C)CC3)nc(Sc3ccc(NC(=O)C4CC4)cc3)n2)[nH]n1 [Tozasertib/(VX-680), Tozasertib, reference compound]	~7.6 µM	80.9 ± 0.005%	89.3 ± 0.015%	21.4 ± 1.6 µM	49.5 ± 0.006%	68.7 ± 0.011%	53.4 ± 0.02%	80.9 ± 0.01%	17.9 ± 1.64 µM	~7.6 µM	81 ± 0.008%	87 ± 0.007%	85 ± 0.006%	89 ± 0.005%	9.2 ± 0.6 µM	IC50 (MDA-MB-231 cells): 7.7 ± 0.65 µM; reduced the tumor size [1]: 22–98%
COc1ccc(C(=O)C2=NON3O[C@@]23C(=O)c2ccc(OC)cc2)cc1 (stereo partly shown) [Hit 85]	3.5 µM	92.97 ± 0.004%	94.1 ± 0.001%	8.2 ± 1.4 µM	77 ± 0.007%	87.3 ± 0.003%	84.6 ± 0.002%	86 ± 0.002%	8.8 ± 0.74 µM	11 ± 0.43 µM	82.3 ± 0.006%	87.7 ± 0.001%	45.4 ± 0.05%	83.4 ± 0.01%	27.5 ± 1.5 µM	IC50 (PANC1 cells): 3.54 ± 0.11 µM; IC50 [2]: 3.5 to 11 µM; IC50 (Aurora-A kinase; IC50, 0.1–100 μM, duplicates, nonlinear regression): 4.29 µM and 4.3 µM; Hill Slope (Aurora-A kinase; dose-response curve, GraphPad Prism): 1.70; inhibition at 10 µM (Aurora-A kinase; read-out: % Inhibition at 10 µM): 56%
